{
  "source": "patent US7105536B2",
  "about": "“Compounds” (SmithKline Beecham plc, priority 1999, dated 2006)",
  "data": [
    {"tested_on": "male rats (Sprague Dawley)", "assay": "Maximal electroshock seizure (MEST) threshold test, rat model", "assay_type": "in vivo", "details": "2 mg/kg p.o. at 2 h, suspended in 1% methyl cellulose", "description": "The maximal electroshock seizure (MEST) threshold test in rodents is particularly sensitive for detecting potential anticonvulsant properties^1. In this model, anticonvulsant agents elevate the threshold to electrically-induced seizures whilst proconvulsants lower the seizure threshold.\nThe threshold for maximal (tonic hindlimb extension) electroshock seizures in male rats (Sprague Dawley, 80–150 g, 6 weeks old) was determined by a Hugo Sachs Electronik stimulator which delivered a constant current (0.3 sec duration; from 1–300 mA in steps of 5–20 mA). The procedure is similar to that outlined above for mouse and full details are as published by Upton et al,.^4\nThe percentage increase or decrease in CC50 for each group compared to the control is calculated. Drugs are suspended in 1% methyl cellulose.", "units": {"percentage increase in CC50 compared to the control": "%"}, "values": [
      {"molecule": "CCOc1ccc(C(=O)Nc2cc(Cl)c3c(c2)CNCC3)cc1Cl", "note": "[Example 2, N-(5-Chloro-1,2,3,4-tetrahydroisoquinolin-7-yl)-3-chloro-4-ethoxy benzamide]", "percentage increase in CC50 compared to the control": 390},
      {"molecule": "COc1ccc(C(=O)Nc2cc(Cl)c3c(c2)CNCC3)cc1C#N", "note": "[Example 5, N-(5-Chloro-1,2,3,4-tetrahydroisoquinolin-7-yl)-3-cyano-4-methoxybenzamide]", "percentage increase in CC50 compared to the control": 210},
      {"molecule": "CC(C)c1ccc(C(=O)Nc2cc(Cl)c3c(c2)CNCC3)cc1C#N", "note": "[Example 3, N-(5-Chloro-1,2,3,4-tetrahydroisoquinolin-7-yl)-3-cyano-4-iso-propyl benzamide]", "percentage increase in CC50 compared to the control": 140},
      {"molecule": "CC(=O)c1cc(C(=O)Nc2cc(Cl)c3c(c2)CNCC3)ccc1OC(C)C", "note": "[Example 8, N-(5-Chloro-1,2,3,4-tetrahydroisoquinolin-7-yl)-3-acetyl-4-iso-propoxybenzamide]", "percentage increase in CC50 compared to the control": 114},
      {"molecule": "CCOc1ccc(C(=O)Nc2cc(Cl)c3c(c2)CNCC3)cc1Br", "note": "[Example 7, N-(5-Chloro-1,2,3,4-tetrahydroisoquinolin-7-yl)-3-bromo-4-ethoxybenzamide]", "percentage increase in CC50 compared to the control": 410}
    ]}
  ]
}
